Laboratory results as given in patent US20140127288A1, “LIPOSOME CONTAINING PYRROLOQUINOLINE QUINONE AND SUGAR” (MITSUBISHI GAS CHEMICAL COMPANY, INC., priority 2011, published 2014).

System: Chinese hamster ovary cells (CHO-DHFR)
Assay: Proliferation study (WST assay)
Assay type: cell-based
Details: vs cells treated with culture medium alone; one day incubation
Description: Chinese hamster ovary cells (CHO-DHFR; obtained from Dainippon Sumitomo Pharma Co., Ltd.) was cultured in the culture medium, α-MEM+10% fetal calf serum, in an atmosphere of 5% CO2 at 37° C. A 96-well microplate (IWAKI & Co., Ltd.) was used and cells were added to each well at 5000 cells with 100 μl of the culture medium, and the microplate was incubated overnight. After removing the culture medium, a new culture medium containing the liposome composition prepared in Examples 1 to 4 and Comparative Examples 1 to 3 at a predetermined concentration was added to each well. After one day incubation, a test solution in a WST Assay Kit was reacted for 1 hour according to a procedure of the Kit (Dojindo Laboratories), and the absorbance of each well was measured at 450 nm. In WST Assay, the absorbance obtained is proportional to the number of live cells. The liposome compositions prepared in Examples 1 to 4 and Comparative Examples 1 to 3 and […] (for Comparative Example 4) were used as samples, and the samples were diluted by the culture medium and subjected to a test. The concentrations used in the test were 500, 250, 125, 62, 31, 16, 8, 4, 2, 1, 0.5, and 0 μM. In Comparative Example 2, the concentration of the liposome composition was used as the test concentration of the sample. The test was conducted for each sample twice and the average was calculated. […]

In the case of `O=C(O)c1cc(C(=O)O)c2c(n1)C(=O)C(=O)c1cc(C(=O)O)[nH]c1-2` [Comparative Example 4, Pyrroloquinoline quinone disodium], the “Concentration of growth inhibition (total cell number decreases by 10%)” value is reported as 500 µM.
